Columns and labels:
[1] = test system: Osteoclast precursor cells; assay: Osteoclast differentiation assay (acid phosphatase readout); assay type: cell-based
Protocol: Further, an osteoclast differentiation assay is used to assess the efficacy of Fms inhibitors for treating bone disease such as osteoarthritis. On day 0, Osteoclast Medium BulletKit (Lonza catalog #PT-8001, containing Media, FBS, L-Glutamine, PenStrep, RANKL, and M-CSF) media is thawed and the FBS, L-glutamine and PenStrep from the kit is added to 100 mL of Osteoclast Precursor Basal medium to provide the Osteoclast Precursor Growth Medium (OPGM). This is warmed to 37° C. Osteoclast precursor cells (Lonza catalog #2T-110) frozen in cryovial are warmed to 37° C. and transferred to a 50 mL conical tube. The cryovial is rinsed with OPGM and added dropwise to the conical tube of cells with swirling, then the volume is adjusted to 20-30 mL with addition of OPGM. The cells are centrifuged at 200×g for 15 minutes at room temperature and all but approximately 3 mL of supernatant is removed to a new conical tube. The cells are suspended in the remaining supernatant and the volume is adjusted to 10-15 mL with OPGM added dropwise with swirling. The cells are centrifuged at 200×g for 15 minutes at room temperature and all but approximately 1 mL of supernatant is removed. The cells are resuspended in the remaining supernatant, counted, and the volume adjusted with an appropriate amount of OPGM to provide approximately 1×10^5 cells/mL. A 0.1 mL aliquot of cells is added to each well of a 96-well plate. Compound to be tested is prepared in DMSO for plating at a high concentration of 2.5 mM, with 8 point 1:3 serial dilutions. A 1 μL aliquot of each compound dilution is added to a 96 well v-bottom polypropylene plate and 0.124 mL of OPGM is added to the compound. Then 50 μL at of the compound in OPGM is added to the osteoclast precursor cells in 96-well plate (providing highest test concentration of 5 μM). RANKL (2 μg) from the BulletKit is reconstituted in 1 mL of OPGM, then vortexed and centrifuged briefly. A 792 μL at aliquot of RANKL is added to 6 mL of OPGM and 50 μL at is added to low control wells. Then 76.6 μL M-CSF (10 μg/mL) from the BulletKit is added to the remaining 5.8 mL of OPGM/RANKL solution (4×RANKL/M-CSF/OPGM). A 50 μL at aliquot of this is added to the remaining wells, and the remainder is stored at 4° C. for later use. The plate is incubated at 37° C. for 6 days, then the remaining OPGM/RANKL/M-CSF solution is warmed to 37° C. The remaining approximately 198 μL is combined with 6 mL of OPGM. The media is aspirated from the osteoclast wells and 100 μL of RANKL/OPGM is added to the low controls. The remaining RANKL/OPGM is combined with the approximately 18.5 μL of remaining M-CSF. The remaining 4×RANKL/M-CSF/OPGM from day 0 is diluted to 1× and combined with the freshly prepared solution. A 0.1 mL aliquot of this is added to each osteoclast well and incubated for 37° C. for 1 day. The Acid Phosphatase kit (Cayman Chemical catalog #10008051) is warmed to room temperature. The assay buffer is diluted 5 mL with 45 mL of water. For each plate, two substrate tablets are dissolved in 4.5 mL of the assay buffer, mixing by vortex to break up the tablet. Stop solution is diluted 12 mL with 36 mL of water. In a tissue culture hood, 20 μL of each osteoclast well supernatant is transferred to a 96 well plate. A 30 μL aliquot of the substrate solution is added to each well and incubated at 37° C. for 20 minutes, then added 100 μL stop solution to each well. The absorbance of each well is read at 405 nm on Safire plate reader. The absorbance reading is plotted vs. concentration to provide the IC50 for each compound.

[2] = target: CYP3A4(BQ) (Homo sapiens, UniProt P08684); assay: CYP3A4(BQ) inhibition; assay type: in vitro ADME; conditions: CYP3A4, substrate BQ; read-out: Cyp IC50 3A4(BQ)
How it was run: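 After 30 min incubation at 37° C, plates were read on a Tecan Safire 2 at 409 ex/460 em, and IC50 values came from signal plotted against compound concentration. Enzyme and substrate were sourced from BD Biosciences. The cofactor mix held 1.3% NADPH Regeneration system Solution A, 1.04% Solution B, 5% acetonitrile and 0.05% DMSO.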

Sequence of CYP3A4(BQ) (P08684 whole entry): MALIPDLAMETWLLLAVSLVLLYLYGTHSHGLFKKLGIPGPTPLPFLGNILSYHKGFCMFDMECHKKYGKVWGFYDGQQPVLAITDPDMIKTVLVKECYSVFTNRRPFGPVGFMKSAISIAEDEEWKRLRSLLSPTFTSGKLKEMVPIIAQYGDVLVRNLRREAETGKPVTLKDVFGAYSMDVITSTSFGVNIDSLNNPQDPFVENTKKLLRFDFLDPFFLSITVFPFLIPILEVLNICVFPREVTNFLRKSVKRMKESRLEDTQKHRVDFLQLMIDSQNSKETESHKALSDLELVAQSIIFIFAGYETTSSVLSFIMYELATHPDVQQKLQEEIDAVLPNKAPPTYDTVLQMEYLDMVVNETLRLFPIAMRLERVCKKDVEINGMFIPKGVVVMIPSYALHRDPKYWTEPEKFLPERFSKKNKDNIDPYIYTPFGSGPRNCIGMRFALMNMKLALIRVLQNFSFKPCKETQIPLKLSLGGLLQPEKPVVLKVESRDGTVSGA

| Compound | IC50 [1] | IC50 [2] |
| --- | --- | --- |
| FC1(F)CCC(Nc2ncc(Cc3c[nH]c4ncc(Cl)cc34)cn2)CC1 [Compound P-3004] | < 100 nM | > 10000 nM |
| Clc1cnc2[nH]cc(Cc3cnc(NC4CCCCCC4)nc3)c2c1 [Compound P-3006, [5-(5-Chloro-1H-pyrrolo[2,3-b]pyridin-3-ylmethyl)-pyrimidin-2-yl]-cycloheptyl-amine] | < 100 nM | – |
| COc1ccc(Nc2ccc(Cc3c[nH]c4ncc(C)cc34)c(F)n2)cn1 [Compound P-3019, [6-fluoro-5-(5-methyl-1H-pyrrolo[2,3-b]pyridin-3-ylmethyl)-pyridin-2-yl]-(6-methoxy-pyridin-3-yl)-amine] | < 100 nM | > 10000 nM |
| CCOc1ccc(Nc2ncc(Cc3c[nH]c4ncc(C)cc34)cn2)cn1 [Compound P-3027, (6-Ethoxy-pyridin-3-yl)-[5-(5-methyl-1H-pyrrolo[2,3-b]pyridin-3-ylmethyl)-pyrimidin-2-yl]-amine] | < 100 nM | – |
| CCn1cc(Nc2ncc(Cc3c[nH]c4ncc(C)cc34)cn2)cn1 [Compound P-3036, (1-Ethyl-1H-pyrazol-4-yl)-[5-(5-methyl-1H-pyrrolo[2,3-b]pyridin-3-ylmethyl)-pyrimidin-2-yl]-amine] | < 100 nM | – |
| CCOc1ccc(Nc2ccc(Cc3c[nH]c4ncc(C)cc34)c(F)n2)cn1 [Compound P-3039, (6-ethoxy-pyridin-3-yl)-[6-fluoro-5-(5-methyl-1H-pyrrolo[2,3-b]pyridin-3-ylmethyl)-pyridin-2-yl]-amine] | < 100 nM | – |
| Cc1cnc2[nH]cc(Cc3ccc(Nc4ccc(C)nc4)nc3F)c2c1 [Compound P-3041, [6-Fluoro-5-(5-methyl-1H-pyrrolo[2,3-b]pyridin-3-ylmethyl)-pyridin-2-yl]-(6-methyl-pyridin-3-yl)-amine] | < 100 nM | > 10000 nM |
| Cc1ccc(Nc2ccc(Cc3c[nH]c4ncc(Cl)cc34)c(F)n2)cn1 [Compound P-3042, [5-(5-Chloro-1H-pyrrolo[2,3-b]pyridin-3-ylmethyl)-6-fluoro-pyridin-2-yl]-(6-methyl-pyridin-3-yl)-amine] | < 100 nM | – |
| COc1ccc(Nc2ccc(Cc3c[nH]c4ncnc(OC)c34)c(F)n2)cn1 [Compound P-4001, [6-Fluoro-5-(4-methoxy-7H-pyrrolo[2,3-d]pyrimidin-5-ylmethyl)-pyridin-2-yl]-(6-methoxy-pyridin-3-yl)-amine] | < 100 nM | – |
| COc1ncnc2[nH]cc(Cc3ccc(Nc4ccc(C5CC5)nc4)nc3F)c12 [Compound P-4004, (6-Cyclopropyl-pyridin-3-yl)-[6-fluoro-5-(4-methoxy-7H-pyrrolo[2,3-d]pyrimidin-5-ylmethyl)-pyridin-2-yl]-amine] | < 100 nM | > 10000 nM |
| CCOc1ccc(Nc2ccc(Cc3c[nH]c4ncnc(OC)c34)c(F)n2)cn1 [Compound P-4005, (6-Ethoxy-pyridin-3-yl)-[6-fluoro-5-(4-methoxy-7H-pyrrolo[2,3-d]pyrimidin-5-ylmethyl)-pyridin-2-yl]-amine] | < 100 nM | > 10000 nM |
| CCOc1ccc(Nc2ccc(Cc3c[nH]c4ncnc(C)c34)c(F)n2)cn1 [Compound P-4006, (6-Ethoxy-pyridin-3-yl)-[6-fluoro-5-(4-methyl-7H-pyrrolo[2,3-d]pyrimidin-5-ylmethyl)-pyridin-2-yl]-amine] | < 100 nM | > 10000 nM |
| CCc1ccc(Nc2ccc(Cc3c[nH]c4ncnc(OC)c34)c(F)n2)cn1 [Compound P-4007, (6-Ethyl-pyridin-3-yl)-[6-fluoro-5-(4-methoxy-7H-pyrrolo[2,3-d]pyrimidin-5-ylmethyl)-pyridin-2-yl]-amine] | < 100 nM | > 10000 nM |

Results, then the compound that gave them:

| IC50 [1] | IC50 [2] | Compound |
| --- | --- | --- |
| < 100 nM | > 10000 nM | CCOc1ccc(Nc2ccc(Cc3c[nH]c4ncnc(OCCOC)c34)c(F)n2)cn1 [Compound P-4008, (6-Ethoxy-pyridin-3-yl)-{6-fluoro-5-[4-(2-methoxy-ethoxy)-7H-pyrrolo[2,3-d]pyrimidin-5-ylmethyl]-pyridin-2-yl}-amine] |
| < 100 nM | > 10000 nM | CCc1ccc(Nc2ccc(Cc3c[nH]c4ncnc(C)c34)c(F)n2)cn1 [Compound P-4009, (6-Ethyl-pyridin-3-yl)-[6-fluoro-5-(4-methyl-7H-pyrrolo[2,3-d]pyrimidin-5-ylmethyl)-pyridin-2-yl]-amine] |
| < 100 nM | > 10000 nM | COc1ncnc2[nH]cc(Cc3ccc(Nc4ccc(C)nc4)nc3F)c12 [Compound P-4010, [6-Fluoro-5-(4-methoxy-7H-pyrrolo[2,3-d]pyrimidin-5-ylmethyl)-pyridin-2-yl]-(6-methyl-pyridin-3-yl)-amine] |
| < 100 nM | > 10000 nM | CCn1cc(Nc2ccc(Cc3c[nH]c4ncnc(OC)c34)c(F)n2)cn1 [Compound P-4011, (1-Ethyl-1H-pyrazol-4-yl)-[6-fluoro-5-(4-methoxy-7H-pyrrolo[2,3-d]pyrimidin-5-ylmethyl)-pyridin-2-yl]-amine] |
| < 100 nM | > 10000 nM | CCOc1ncnc2[nH]cc(Cc3ccc(Nc4cnn(CC)c4)nc3F)c12 [Compound P-4012, [5-(4-Ethoxy-7H-pyrrolo[2,3-d]pyrimidin-5-ylmethyl)-6-fluoro-pyridin-2-yl]-(1-ethyl-1H-pyrazol-4-yl)-amine] |
| < 100 nM | > 10000 nM | CCn1cc(Nc2ccc(Cc3c[nH]c4ncnc(C)c34)c(F)n2)cn1 [Compound P-4013, (1-Ethyl-1H-pyrazol-4-yl)-[6-fluoro-5-(4-methyl-7H-pyrrolo[2,3-d]pyrimidin-5-ylmethyl)-pyridin-2-yl]-amine] |
| < 100 nM | > 10000 nM | CCn1cc(Nc2ccc(Cc3c[nH]c4ncnc(OCCOC)c34)c(F)n2)cn1 [Compound P-4014, (1-Ethyl-1H-pyrazol-4-yl)-{6-fluoro-5-[4-(2-methoxy-ethoxy)-7H-pyrrolo[2,3-d]pyrimidin-5-ylmethyl]-pyridin-2-yl}-amine] |
| < 100 nM | > 10000 nM | COCCOc1ncnc2[nH]cc(Cc3ccc(Nc4ccc(C)nc4)nc3F)c12 [Compound P-4015, {6-Fluoro-5-[4-(2-methoxy-ethoxy)-7H-pyrrolo[2,3-d]pyrimidin-5-ylmethyl]-pyridin-2-yl}-(6-methyl-pyridin-3-yl)-amine] |
| < 100 nM | > 10000 nM | CCc1ccc(Nc2ccc(Cc3c[nH]c4ncnc(OCCOC)c34)c(F)n2)cn1 [Compound P-4016, (6-Ethyl-pyridin-3-yl)-{6-fluoro-5-[4-(2-methoxy-ethoxy)-7H-pyrrolo[2,3-d]pyrimidin-5-ylmethyl]-pyridin-2-yl}-amine] |
| < 100 nM | > 10000 nM | COc1ccc(Nc2ccc(Cc3c[nH]c4ncnc(C5CC5)c34)c(F)n2)cn1 [Compound P-4023, [5-(4-cyclopropyl-7H-pyrrolo[2,3-d]pyrimidin-5-ylmethyl)-6-fluoro-pyridin-2-yl]-(6-methoxy-pyridin-3-yl)-amine] |

Reference: patent US8901118B2, “Compounds and methods for kinase modulation, and indications therefor” (Plexxikon Inc., priority 2010, dated 2014)
